# From ChEMBL document CHEMBL5143505, “Emerging Approaches to Overcome Acquired Drug Resistance Obstacles to Osimertinib in Non-Small-Cell Lung Cancer” (J Med Chem, 2022)
# Assays:
# [1] = target: T1, Epidermal growth factor receptor (Homo sapiens, UniProt P00533, C797S/L858R/T790M); test: Inhibition of EGFR L858R/T790M/C797S triple mutant (unknown origin)
# [2] = Inhibition of p-EGFR Del19/T790M/C797S triple mutant in mouse BaF3 cells; format: cell-based
# [3] = system: BaF3; test: Antiproliferative against in mouse BaF3 EFGR Del19/T790M/C797S cell; format: functional, cell-based
# [4] = system: NCI-H1975; test: Growth inhibition of human NCI-H1975 cells; format: functional, cell-based
# [5] = system: BaF3; test: Antiproliferative against in mouse BaF3 cells harbouring Del19/T790M/C797S triple mutant at 100 nM relative to control; format: functional
# [6] = system: BaF3; test: cells; details: Mus musculus
# [7] = target: Epidermal growth factor receptor (Homo sapiens, UniProt P00533); test: Inhibition of wild type EGFR (unknown origin)
# Epidermal growth factor receptor (Homo sapiens, UniProt P00533), sequence (P00533 whole entry): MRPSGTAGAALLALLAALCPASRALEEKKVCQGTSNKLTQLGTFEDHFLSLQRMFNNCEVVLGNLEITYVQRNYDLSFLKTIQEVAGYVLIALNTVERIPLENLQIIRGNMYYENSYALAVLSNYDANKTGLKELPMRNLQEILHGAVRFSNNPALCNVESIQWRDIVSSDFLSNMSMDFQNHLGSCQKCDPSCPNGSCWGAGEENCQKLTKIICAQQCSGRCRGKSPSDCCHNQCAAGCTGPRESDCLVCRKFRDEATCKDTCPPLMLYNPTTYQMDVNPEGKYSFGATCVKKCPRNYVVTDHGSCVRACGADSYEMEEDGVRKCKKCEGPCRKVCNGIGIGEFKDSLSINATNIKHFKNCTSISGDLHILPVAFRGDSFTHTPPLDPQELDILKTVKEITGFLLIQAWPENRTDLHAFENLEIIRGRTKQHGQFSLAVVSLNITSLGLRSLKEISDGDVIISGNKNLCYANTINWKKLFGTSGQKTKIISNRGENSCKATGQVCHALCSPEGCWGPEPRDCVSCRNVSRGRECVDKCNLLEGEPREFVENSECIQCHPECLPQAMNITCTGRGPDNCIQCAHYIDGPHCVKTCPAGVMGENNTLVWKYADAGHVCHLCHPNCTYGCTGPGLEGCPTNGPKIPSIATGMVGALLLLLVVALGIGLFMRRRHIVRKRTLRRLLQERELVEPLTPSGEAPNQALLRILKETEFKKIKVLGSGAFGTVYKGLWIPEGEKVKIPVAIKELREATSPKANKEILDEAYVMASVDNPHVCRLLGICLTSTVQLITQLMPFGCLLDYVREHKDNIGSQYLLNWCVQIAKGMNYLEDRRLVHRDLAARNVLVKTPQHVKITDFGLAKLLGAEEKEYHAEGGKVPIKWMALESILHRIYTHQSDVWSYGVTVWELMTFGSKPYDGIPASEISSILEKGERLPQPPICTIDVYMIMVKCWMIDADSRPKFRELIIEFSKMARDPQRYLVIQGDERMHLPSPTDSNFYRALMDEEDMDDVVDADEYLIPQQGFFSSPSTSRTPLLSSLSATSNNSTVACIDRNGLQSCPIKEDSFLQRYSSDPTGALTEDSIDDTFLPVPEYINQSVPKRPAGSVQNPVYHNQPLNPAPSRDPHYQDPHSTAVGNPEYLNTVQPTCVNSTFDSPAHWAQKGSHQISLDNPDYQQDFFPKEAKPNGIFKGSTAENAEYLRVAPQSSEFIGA
# [8] = Antiproliferative against in mouse Ba/F3 EGFR-Del19/T790M/C797S cells; format: functional, cell-based
# [9] = Antiproliferative against in mouse Ba/F3 EGFR-T790M/C797S/L858R cells; format: functional, cell-based
# [10] = target: T1, Epidermal growth factor receptor; test: Inhibition of EGFR L858R/T790M/C797S triple mutant (unknown origin) expressed in mouse BaF3 cells; format: cell-based
# [11] = species on record: Homo sapiens; test: Selectivity ratio of IC50 for EGFR Del19/T790M/C797S triple mutant (unknown origin) to wild type EGFR (unknown origin)
# [12] = target: Epidermal growth factor receptor (Homo sapiens, UniProt P00533, C797S/EX19DEL/T790M); test: Inhibition of EGFR Del19/T790M/C797S triple mutant (unknown origin)
# Epidermal growth factor receptor (Homo sapiens, UniProt P00533, C797S/EX19DEL/T790M), sequence (P00533 whole entry, looked up, stated change not applied): as the sequence (P00533 whole entry) above
# [13] = Half life in Ba/F3 EGFR cells xenografted nude mouse liver microsomes; format: ADME
# [14] = target: T2, Epidermal growth factor receptor (Homo sapiens, UniProt P00533, L858R/T790M); test: Inhibition of EGFR L858R/T790M double mutant (unknown origin)
# T2 sequence (P00533 25-1210 T790M/L858R limits assumed): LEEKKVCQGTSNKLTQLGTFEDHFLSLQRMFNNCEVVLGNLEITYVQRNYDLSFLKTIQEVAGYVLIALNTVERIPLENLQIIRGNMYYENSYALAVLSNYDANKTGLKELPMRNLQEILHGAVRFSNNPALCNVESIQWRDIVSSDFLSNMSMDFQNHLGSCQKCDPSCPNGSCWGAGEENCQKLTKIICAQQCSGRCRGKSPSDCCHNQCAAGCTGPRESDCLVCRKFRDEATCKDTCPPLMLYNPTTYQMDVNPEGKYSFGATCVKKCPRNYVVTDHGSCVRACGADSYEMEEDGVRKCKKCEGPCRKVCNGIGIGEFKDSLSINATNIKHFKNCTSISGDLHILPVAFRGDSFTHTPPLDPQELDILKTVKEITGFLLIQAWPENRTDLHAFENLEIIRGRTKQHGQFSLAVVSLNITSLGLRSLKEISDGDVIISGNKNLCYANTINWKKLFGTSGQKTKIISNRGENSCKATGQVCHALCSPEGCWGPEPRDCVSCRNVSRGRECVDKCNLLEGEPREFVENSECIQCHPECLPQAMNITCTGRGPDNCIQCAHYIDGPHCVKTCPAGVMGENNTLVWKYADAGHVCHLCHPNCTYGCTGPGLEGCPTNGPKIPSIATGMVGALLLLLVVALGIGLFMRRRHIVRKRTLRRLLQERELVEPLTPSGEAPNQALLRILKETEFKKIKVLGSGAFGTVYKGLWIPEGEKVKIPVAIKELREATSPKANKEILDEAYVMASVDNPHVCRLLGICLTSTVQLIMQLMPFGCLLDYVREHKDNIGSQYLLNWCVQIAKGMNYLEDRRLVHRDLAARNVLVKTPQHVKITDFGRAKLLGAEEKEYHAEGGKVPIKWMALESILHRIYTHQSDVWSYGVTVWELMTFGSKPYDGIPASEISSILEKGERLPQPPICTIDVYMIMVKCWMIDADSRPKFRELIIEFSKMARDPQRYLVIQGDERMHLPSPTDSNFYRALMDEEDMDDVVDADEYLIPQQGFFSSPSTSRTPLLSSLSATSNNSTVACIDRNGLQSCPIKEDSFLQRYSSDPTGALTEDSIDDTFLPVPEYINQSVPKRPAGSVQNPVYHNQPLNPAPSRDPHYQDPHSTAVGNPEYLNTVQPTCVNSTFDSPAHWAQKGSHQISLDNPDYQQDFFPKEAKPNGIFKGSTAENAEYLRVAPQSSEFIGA
# [15] = Inhibition of EGFR L858R/T790M/C797S triple mutant (unknown origin) in mouse BaF3 cells; format: cell-based
# [16] = target: Epidermal growth factor receptor (Homo sapiens, UniProt P00533, L858R); test: Inhibition of EGFR L858R mutant (unknown origin)
# [17] = Oral bioavailability in rat relative to control; format: ADME, organism-based; details: in vivo
# [18] = target: T2, Epidermal growth factor receptor; test: Inhibition of EGFR L858R/T790M double mutant (unknown origin) in human NCI-H1975 cell; format: cell-based
# [19] = Oral bioavailability in mouse relative to control; format: ADME, organism-based; details: in vivo
# [20] = target: T1, Epidermal growth factor receptor; test: Inhibition of EGFR L858R/T790M/C797S triple mutant (unknown origin) by HTRF method
# [21] = target: T1, Epidermal growth factor receptor; test: Inhibition of EGFR L858R/T790M/C797S triple mutant (unknown origin) in human NCI-H1975 cell; format: cell-based
# T1 sequence (P00533 25-1210 T790M/C797S/L858R limits assumed): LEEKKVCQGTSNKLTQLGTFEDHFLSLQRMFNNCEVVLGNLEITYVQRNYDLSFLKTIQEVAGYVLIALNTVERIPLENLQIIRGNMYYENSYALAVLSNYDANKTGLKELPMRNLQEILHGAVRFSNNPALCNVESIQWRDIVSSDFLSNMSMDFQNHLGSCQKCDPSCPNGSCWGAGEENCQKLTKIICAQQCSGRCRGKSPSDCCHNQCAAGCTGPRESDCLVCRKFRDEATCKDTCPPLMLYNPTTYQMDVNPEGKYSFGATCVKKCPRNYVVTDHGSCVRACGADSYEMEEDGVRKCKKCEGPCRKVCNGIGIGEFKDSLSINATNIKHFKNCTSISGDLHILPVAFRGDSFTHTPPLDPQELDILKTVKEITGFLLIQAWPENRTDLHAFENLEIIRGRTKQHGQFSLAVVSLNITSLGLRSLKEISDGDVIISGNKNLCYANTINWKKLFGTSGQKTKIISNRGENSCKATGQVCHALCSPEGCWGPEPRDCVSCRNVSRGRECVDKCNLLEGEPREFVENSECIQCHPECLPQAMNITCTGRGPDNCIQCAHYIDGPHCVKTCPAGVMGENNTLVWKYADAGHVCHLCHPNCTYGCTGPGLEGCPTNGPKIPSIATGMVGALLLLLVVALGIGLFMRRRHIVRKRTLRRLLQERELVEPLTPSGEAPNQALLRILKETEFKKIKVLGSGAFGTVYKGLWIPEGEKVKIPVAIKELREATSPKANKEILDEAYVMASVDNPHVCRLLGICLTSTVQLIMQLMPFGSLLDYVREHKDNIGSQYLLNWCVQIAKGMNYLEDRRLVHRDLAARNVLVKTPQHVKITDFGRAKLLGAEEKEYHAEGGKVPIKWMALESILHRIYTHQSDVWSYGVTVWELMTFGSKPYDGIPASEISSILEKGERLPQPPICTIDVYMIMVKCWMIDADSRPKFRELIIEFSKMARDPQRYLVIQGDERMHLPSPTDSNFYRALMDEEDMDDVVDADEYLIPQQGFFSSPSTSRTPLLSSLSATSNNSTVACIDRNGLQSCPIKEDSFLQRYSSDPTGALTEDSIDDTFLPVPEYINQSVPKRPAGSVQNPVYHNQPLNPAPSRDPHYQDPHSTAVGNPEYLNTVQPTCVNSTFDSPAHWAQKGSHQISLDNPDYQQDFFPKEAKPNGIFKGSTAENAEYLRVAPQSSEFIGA
smiles,measurement,setting,value
CCC(=O)N[C@H]1CC[C@H](n2c(=O)c(-c3ccccc3Cl)cc3ccc(Nc4ccc(N5CCN(C)CC5)c(C)c4)cc32)CC1,IC50,[1],0.0381 µM
CC(C)(O)Cn1/c(=N/C(=O)c2cc(F)cc(-c3cccnc3)c2)[nH]c2ccccc21,IC50,[2],0.79 µM
same,IC50,[3],0.25 µM
CN(C)C1CCN(c2ccc(Nc3cc4c(N5CCC(CO)CC5)nc(Nc5ccc(F)cc5)nc4cn3)nc2)CC1,IC50,[1],0.662 µM
same,IC50,[4],0.4 µM
COc1cc(N2CCC(N3CCN(C)CC3)CC2)ccc1Nc1ncc(Cl)c(Nc2ccccc2P(C)(C)=O)n1 [BRIGATINIB],inhibition at 0.1 µM,[5],50%
same,IC50,[6],0.03 µM
OCCCc1nc(-c2ccc(F)cc2)c(-c2ccnc3[nH]c(-c4ccccc4)cc23)[nH]1,IC50,[7],≤ 0.0002 µM
CN1CCN(c2ccc(Nc3ncc4nc(Nc5ccccc5)n([C@@H]5CCN(S(=O)(=O)C6CC6)C5)c4n3)cc2)CC1,IC50,[1],0.04 µM
COC(=O)c1ccc(O)c(-c2nc(NCc3cccnc3)c3ccccc3n2)c1,IC50,[7],≥ 50 µM
C=CC(=O)Nc1cc(Nc2nccc(-c3cn(C)c4ccccc34)n2)c(OC)cc1N(C)CCN(C)C [OSIMERTINIB],IC50,[8],0.73 µM
same,IC50,[9],1.08 µM
CC(=O)N[C@H]1CC[C@H](n2c(=O)c(-c3ccccc3Cl)cc3ccc(Nc4ccc(N5CCN(C)CC5)c(C)c4)cc32)CC1,IC50,[1],0.0478 µM
CN1CCN(c2ccc(Nc3ncc4nc(Nc5ccccc5)n([C@H]5CCN(S(=O)(=O)C6CC6)C5)c4n3)cc2)CC1,IC50,[1],0.018 µM
CSc1nc(-c2ccc(F)cc2)c(-c2ccnc3[nH]c(-c4ccccc4)cc23)[nH]1,IC50,[7],0.287 µM
C=CC(=O)Nc1cc(Nc2ncc(C(=O)OC(C)C)c(-c3cc4ccccc4n3C3CC3)n2)c(OCC(F)(F)F)nc1N(C)CCN(C)C,IC50,[8],0.01 µM
CC(C)(C)n1cc(-c2cncc3ccccc23)c2c(N)ncnc21,IC50,[1],0.053 µM
same,IC50,[7],1.62 µM
same,IC50,[10],5.42 µM
C=CC(=O)Nc1cc(Nc2ncc(C(=O)OC(C)C)c(-c3cc4ccccc4n3C)n2)c(OCC(F)(F)F)nc1N(C)CCN(C)C,IC50,[8],0.009 µM
OCCc1nc(-c2ccc(F)cc2)c(-c2ccnc3[nH]c(-c4ccccc4)cc23)[nH]1,IC50,[7],≤ 0.0003 µM
CN1CC2(CCN(c3ccc(Nc4ncc(Cl)c(Nc5ccccc5P(C)(C)=O)n4)cc3Br)CC2)C1,IC50,[8],≤ 0.1 µM
same,IC50,[2],≤ 0.1 µM
CN1CCN(c2ccc(Nc3ncc4nc(Nc5ccc(F)cc5)n([C@H]5CCN(S(=O)(=O)C6CC6)C5)c4n3)cc2)CC1,IC50,[1],0.022 µM
COc1cc(N(C)CCN(C)C)ccc1Nc1nccc(-c2cn(CCCO)c3ccccc23)n1,IC50,[1],0.0085 µM
Oc1ccccc1-c1nc(NCc2cccnc2)c2ccccc2n1,Ratio IC50,[11],163
Cn1cc(-c2cc(C(=O)/N=c3\[nH]c4ccccc4n3[C@H]3CC[C@H](O)CC3)ccn2)cn1,IC50,[1],0.0482 µM
same,IC50,[8],0.012 µM
same,IC50,[9],0.0482 µM
same,IC50,[12],0.012 µM
same,IC50,[7],0.54 µM
COc1cc(N2CCC(N3CCN(C)CC3)CC2)c(C)cc1Nc1ncc(Br)c(Nc2ccc3nccnc3c2P(C)(C)=O)n1,half-life,[13],10 h
O=C1c2cc(F)ccc2Nc2ccccc2N1Cc1ccccc1,IC50,[1],0.052 µM
same,IC50,[7],> 1 µM
Cc1cc2cc(n1)-c1cnn(C)c1OCCC[C@@H](C)CN1/C(=N/C2=O)Nc2ccc(CN3CCN(C)CC3)cc21,IC50,[2],0.0006 µM
CCC(=O)N1CCC[C@@H](N2CC(c3cccc(F)c3Cl)=C(C)c3cnc(Nc4ccc(N5CCN(C)CC5)c(C)c4)nc32)C1,IC50,[1],0.0275 µM
same,IC50,[7],≥ 1 µM
same,IC50,[10],0.662 µM
O=C(Nc1nccs1)C(c1ccccc1)N1Cc2ccc(-c3ccc4[nH]ccc4c3)cc2C1=O (configuration not stated),IC50,[14],0.015 µM
CCC(=O)N[C@H]1CC[C@@H](N2C(=O)N(c3ccccc3Cl)Cc3cnc(Nc4ccc(N5CCN(C)CC5)c(C)c4)nc32)CC1,IC50,[15],0.21 µM
Cc1cc(Nc2ncc(Cl)c(Nc3ccccc3P(C)(C)=O)n2)ccc1N1CCC2(CC1)CN(C)C2,IC50,[8],≤ 0.1 µM
same,IC50,[2],≤ 0.1 µM
CCc1cc(Nc2ncc(Br)c(Nc3ccc4nccnc4c3P(C)(C)=O)n2)c(OC)cc1N1CCC(N2CCN(C)CC2)CC1,IC50,[8],0.009 µM
same,IC50,[12],0.000212 µM
same,half-life,[13],20.5 h
CN(C)CCOc1ccc(Nc2ncc3nc(Sc4ccc(F)cc4)n(C4CCOCC4)c3n2)cc1,IC50,[16],0.0012 µM
N#Cc1ccc(O)c(-c2nc(NCc3cnccn3)c3ccccc3n2)c1,IC50,[12],0.0179 µM
same,IC50,[7],≥ 50 µM
same,Ratio IC50,[11],1000
C=C(C)c1cnc(Nc2ccc(N3CCC4(CC3)CN(C)C4)cc2)nc1Nc1ccccc1P(C)(C)=O,IC50,[8],≤ 0.1 µM
same,IC50,[2],≤ 0.1 µM
N#Cc1ccc(O)c(-c2nc(NCc3cccnc3)c3ccccc3n2)c1,IC50,[12],0.023 µM
same,IC50,[7],50 µM
N#Cc1ccc(O)c(-c2nc(NCc3ncccn3)c3ccccc3n2)c1,bioavailability,[17],18.6%
same,IC50,[18],3.3 µM
same,bioavailability,[19],18.6%
same,IC50,[20],0.63 µM
same,IC50,[21],1.2 µM
O=C(Nc1nccs1)C(c1ncn2c1CCC2)N1Cc2c(F)cc(C#Cc3ccc(CN4CCC(CO)CC4)cc3)cc2C1=O (configuration not stated),IC50,[1],0.005 µM
Oc1ccc(-c2nc(-c3ccnc4[nH]c(-c5ccccc5)cc34)c(-c3ccc(F)cc3)[nH]2)cc1,IC50,[7],1 µM
OCCCCc1nc(-c2ccc(F)cc2)c(-c2ccnc3[nH]c(-c4ccccc4)cc23)[nH]1,IC50,[7],≤ 0.0003 µM
COc1cc2c(Nc3ccc(NC(=O)C(c4cc(F)ccc4F)N4Cc5ccccc5C4=O)cc3F)ncnc2cc1OCC1CCN(C)CC1 (configuration not stated),IC50,[8],0.00354 µM
